Test results reported in patent US8729023B2 (priority 2002, dated 2014).
“And” between values parts separate entries of the source, which are not always exact repeats. Identical values can stand only once.

Columns and labels:
[1] = tested on: breast tissue of cancer-free and breast tumor-bearing rats; assay: Effect of BQ788 on ET-1-induced changes in perfusion, CMBC and velocity of blood cells in breast tissue; assay type: in vivo, rat
[2] = tested on: MNU-induced breast tumors; conditions: rat, in vivo
[3] = rat, in vivo
[4] = tested on: human melanoma cells (UISO-MEL-2) tumor; conditions: nude, mouse, in vivo
in vivo = conditions: female, Sprague Dawley, rat
[5] = female, Sprague Dawley, iv, 3 nmol/kg

For `CCCC[C@@H](NC(=O)[C@@H](Cc1cn(C(=O)OC)c2ccccc12)NC(=O)[C@H](CC(C)(C)C)NC(=O)N1[C@H](C)CCC[C@@H]1C)C(=O)O` [BQ788, N-cis-2,6-dimethylpiperidinocarbonyl-L-gamma-methyll-eucyl-D-1-methoxycarbonyltrptophanyl-D-Nle], the “CMBC of tumor-bearing versus normal rats” value ([1]; after BQ788 infusion) was “no difference”, the “velocity of RBC, tumor-bearing versus normal rats” value ([1]; after BQ788 infusion) was “no difference” and the “perfusion in breast tissue of tumor-bearing rats versus normal rats” value ([1]; following ET-1 administration in BQ788 pretreated rats) was “No difference”. The “blood perfusion in the breast tissue” value ([1]; normal rats, BQ788 0.5 μmol/kg infusion for 20 minutes followed by ET-1 50 ng/kg/min for 30 minutes) was “did not change significantly” and the “effect of pretreatment on the increase in perfusion induced by ET-1” value ([1]; tumor-bearing rats) was “attenuated”.

For `CC(=O)O[C@H]1C(=O)[C@@]2(C)[C@H]([C@H](OC(=O)c3ccccc3)[C@]3(O)C[C@H](OC(=O)[C@H](O)[C@@H](NC(=O)c4ccccc4)c4ccccc4)C(C)=C1C3(C)C)[C@]1(OC(C)=O)CO[C@@H]1C[C@@H]2O` [paclitaxel], the “percent of tumors progressed” value [2] was 71.4% and 61.1%, the “percent of tumors regressing in size” value [2] was 9.5% and the “percent of tumors remaining in stasis” value [2] was 22.2% and 19.5%. The “reduction in tumor volume as compared to control rats” value [2] was 60.0%, the “regression (FIG. 13)” value [2] was 33.8±19.4% and the “tumor multiplicity, new tumor occurrence” value [2] was 78.3% and 41%. The tumor regression rate [2] was 37.7±16.2%, the tumor volume [2] was 1960.8±611.9 mm^3 and 1682.7±497.3 mm^3 and the “tumors regressed compared to control rats” value [2] was 45.9±11.5%. The K10 ([3]; female, Sprague Dawley) was 3.14 ± 1.34, the K12 ([3]; female, Sprague Dawley) was 56.47 ± 27.69 and the K13 ([3]; female, Sprague Dawley) was 5.71 ± 3.37. For the same compound, the βt½ ([3]; female, Sprague Dawley) was 1.0 ± 0.32 h, the γt½ ([3]; female, Sprague Dawley) was 25.87 ± 17.81 h and the AUC of paclitaxel ([3]; female, Sprague Dawley, iv) was 9433.53 ± 1465.00 ng·h/mL. For the same compound, the “elimination half-life of paclitaxel” value ([3]; female, Sprague Dawley, iv) was 8.4 ± 4.8 min, the “AUC0-∞” value [3, 5] was 9.43 ± 1.47 µg·h/mL and the Cl [3, 5] was 0.56 ± 0.07 L/h/kg. For the same compound, the Vss [3, 5] was 8.14 ± 2.95 L/kg, the “α t1/2” value [3, 5] was 0.03 ± 0.01 and the “β t1/2” value [3, 5] was 1.0 ± 0.32. For the same compound, the “γ t1/2” value [3, 5] was 25.87 ± 17.81, the “clearance calculated as Dose/AUC” value [3] was 0.56 ± 0.07 L/h/kg and the “tumor [^3H]paclitaxel concentration” value [4] was 40.77 nmol/g tissue. For the same compound, the MRT (in vivo) was 27.9 ± 19.8 h, the half-life (in vivo) was 1.8 ± 0.6 min and the Cmax (in vivo; iv, 3 nmol/kg) was 6730 ± 540 ng/mL. For the same compound, the MRT (in vivo; iv, 3 nmol/kg) was 27.9 ± 19.8 h, the MRT inf (in vivo; iv, 3 nmol/kg) was 17.4 ± 8.13 h and the AUC(0-inf) (in vivo; iv, 3 nmol/kg, AUC0-∞) was 9420 ± 3180 ng·h/mL. For the same compound, the clearance (in vivo; iv, 3 nmol/kg, Cl) was 11.5 mL/min/kg, the Vd (in vivo; iv, 3 nmol/kg, Vd) was 10.1 ± 4.18 L/kg and the Vd (in vivo; iv, 3 nmol/kg, Vss) was 10.3 ± 4.54 L/kg.
